Measured values as given in the supplement of paper PMC6315032.

Assays:
Test in all cases: apparent dissociation constant (pKDapp, Kinobeads competition, Cheng-Prusoff corrected) (-log10 M); higher = tighter binding
AAK1 = AAK1 (UniProt Q2M2I8); details: affinity matrix / lysate: Kinobeads, mixed HEK293/K-562/placenta lysate
AURKA = AURKA (UniProt O14965); details: affinity matrix / lysate: Kinobeads, mixed HEK293/K-562/placenta lysate
BMPR1A = BMPR1A (UniProt P36894); details: affinity matrix / lysate: Kinobeads, mixed HEK293/K-562/placenta lysate
Chain of BMPR1A (P36894 whole entry): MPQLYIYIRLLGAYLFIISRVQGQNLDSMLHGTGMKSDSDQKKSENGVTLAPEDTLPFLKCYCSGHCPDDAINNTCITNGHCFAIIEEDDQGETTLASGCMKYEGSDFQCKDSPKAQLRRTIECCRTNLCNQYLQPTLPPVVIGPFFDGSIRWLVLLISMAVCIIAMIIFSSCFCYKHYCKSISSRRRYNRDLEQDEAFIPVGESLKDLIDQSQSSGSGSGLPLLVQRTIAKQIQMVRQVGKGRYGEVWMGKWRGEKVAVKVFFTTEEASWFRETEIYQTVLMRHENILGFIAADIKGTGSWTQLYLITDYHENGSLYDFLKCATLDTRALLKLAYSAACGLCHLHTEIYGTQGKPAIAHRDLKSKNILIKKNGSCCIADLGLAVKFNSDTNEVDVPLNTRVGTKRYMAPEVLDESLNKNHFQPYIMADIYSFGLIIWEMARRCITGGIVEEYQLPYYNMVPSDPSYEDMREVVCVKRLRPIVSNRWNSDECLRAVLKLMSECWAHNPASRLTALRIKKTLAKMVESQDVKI

BRAF = BRAF (UniProt P15056); details: affinity matrix / lysate: Kinobeads, mixed HEK293/K-562/placenta lysate
BRSK2 = BRSK2 (UniProt Q8IWQ3); details: affinity matrix / lysate: Kinobeads, mixed HEK293/K-562/placenta lysate
Chain of BRSK2 (Q8IWQ3 whole entry): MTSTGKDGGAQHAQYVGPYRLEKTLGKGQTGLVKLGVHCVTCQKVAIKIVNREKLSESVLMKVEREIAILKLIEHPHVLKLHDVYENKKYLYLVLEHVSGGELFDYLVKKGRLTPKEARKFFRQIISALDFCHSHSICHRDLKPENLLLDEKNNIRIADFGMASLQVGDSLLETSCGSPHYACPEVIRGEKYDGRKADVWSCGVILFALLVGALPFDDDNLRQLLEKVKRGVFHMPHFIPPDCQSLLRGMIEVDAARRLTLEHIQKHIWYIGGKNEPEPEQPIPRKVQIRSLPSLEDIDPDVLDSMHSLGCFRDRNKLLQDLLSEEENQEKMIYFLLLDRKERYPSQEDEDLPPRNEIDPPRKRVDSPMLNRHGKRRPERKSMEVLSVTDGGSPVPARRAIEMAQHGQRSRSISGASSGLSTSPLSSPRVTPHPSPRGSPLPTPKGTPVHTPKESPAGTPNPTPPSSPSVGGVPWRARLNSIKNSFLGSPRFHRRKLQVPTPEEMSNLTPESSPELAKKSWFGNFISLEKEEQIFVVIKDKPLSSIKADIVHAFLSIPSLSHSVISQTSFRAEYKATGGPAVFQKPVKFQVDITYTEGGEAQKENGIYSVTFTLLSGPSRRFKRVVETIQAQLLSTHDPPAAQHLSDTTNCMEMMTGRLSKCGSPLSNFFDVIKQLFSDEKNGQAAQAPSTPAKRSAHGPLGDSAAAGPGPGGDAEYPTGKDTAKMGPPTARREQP

CABC1 = CABC1 (UniProt Q8NI60); details: affinity matrix / lysate: Kinobeads, mixed HEK293/K-562/placenta lysate
CDC42BPA = CDC42BPA (UniProt Q5VT25); details: affinity matrix / lysate: Kinobeads, mixed HEK293/K-562/placenta lysate
CSF1R = CSF1R (UniProt P07333); details: affinity matrix / lysate: Kinobeads, mixed HEK293/K-562/placenta lysate
CSNK1D = CSNK1D (UniProt P48730); details: affinity matrix / lysate: Kinobeads, mixed HEK293/K-562/placenta lysate
Chain of CSNK1D (P48730 whole entry, looked up): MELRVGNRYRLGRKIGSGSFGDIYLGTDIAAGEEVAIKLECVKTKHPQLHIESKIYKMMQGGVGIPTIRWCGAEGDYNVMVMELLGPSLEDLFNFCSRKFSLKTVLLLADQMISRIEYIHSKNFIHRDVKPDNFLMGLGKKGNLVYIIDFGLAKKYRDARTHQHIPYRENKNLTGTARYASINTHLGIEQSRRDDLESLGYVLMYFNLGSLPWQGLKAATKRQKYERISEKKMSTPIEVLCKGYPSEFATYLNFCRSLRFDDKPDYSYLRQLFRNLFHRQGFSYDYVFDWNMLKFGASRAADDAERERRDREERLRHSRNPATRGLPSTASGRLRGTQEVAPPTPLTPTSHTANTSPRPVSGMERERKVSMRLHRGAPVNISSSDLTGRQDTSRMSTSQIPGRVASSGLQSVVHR

EPHA2 = EPHA2 (UniProt P29317); details: affinity matrix / lysate: Kinobeads, mixed HEK293/K-562/placenta lysate
EPHA3 = EPHA3 (UniProt P29320); details: affinity matrix / lysate: Kinobeads, mixed HEK293/K-562/placenta lysate
EPHB1 = EPHB1 (UniProt P54762); details: affinity matrix / lysate: Kinobeads, mixed HEK293/K-562/placenta lysate
EPHB4 = EPHB4 (UniProt P54760); details: affinity matrix / lysate: Kinobeads, mixed HEK293/K-562/placenta lysate
ICK = ICK (UniProt Q9UPZ9); details: affinity matrix / lysate: Kinobeads, mixed HEK293/K-562/placenta lysate
IRAK1 = IRAK1 (UniProt P51617); details: affinity matrix / lysate: Kinobeads, mixed HEK293/K-562/placenta lysate
MAP3K5 = MAP3K5 (UniProt Q99683); details: affinity matrix / lysate: Kinobeads, mixed HEK293/K-562/placenta lysate
Chain of MAP3K5 (Q99683 whole entry): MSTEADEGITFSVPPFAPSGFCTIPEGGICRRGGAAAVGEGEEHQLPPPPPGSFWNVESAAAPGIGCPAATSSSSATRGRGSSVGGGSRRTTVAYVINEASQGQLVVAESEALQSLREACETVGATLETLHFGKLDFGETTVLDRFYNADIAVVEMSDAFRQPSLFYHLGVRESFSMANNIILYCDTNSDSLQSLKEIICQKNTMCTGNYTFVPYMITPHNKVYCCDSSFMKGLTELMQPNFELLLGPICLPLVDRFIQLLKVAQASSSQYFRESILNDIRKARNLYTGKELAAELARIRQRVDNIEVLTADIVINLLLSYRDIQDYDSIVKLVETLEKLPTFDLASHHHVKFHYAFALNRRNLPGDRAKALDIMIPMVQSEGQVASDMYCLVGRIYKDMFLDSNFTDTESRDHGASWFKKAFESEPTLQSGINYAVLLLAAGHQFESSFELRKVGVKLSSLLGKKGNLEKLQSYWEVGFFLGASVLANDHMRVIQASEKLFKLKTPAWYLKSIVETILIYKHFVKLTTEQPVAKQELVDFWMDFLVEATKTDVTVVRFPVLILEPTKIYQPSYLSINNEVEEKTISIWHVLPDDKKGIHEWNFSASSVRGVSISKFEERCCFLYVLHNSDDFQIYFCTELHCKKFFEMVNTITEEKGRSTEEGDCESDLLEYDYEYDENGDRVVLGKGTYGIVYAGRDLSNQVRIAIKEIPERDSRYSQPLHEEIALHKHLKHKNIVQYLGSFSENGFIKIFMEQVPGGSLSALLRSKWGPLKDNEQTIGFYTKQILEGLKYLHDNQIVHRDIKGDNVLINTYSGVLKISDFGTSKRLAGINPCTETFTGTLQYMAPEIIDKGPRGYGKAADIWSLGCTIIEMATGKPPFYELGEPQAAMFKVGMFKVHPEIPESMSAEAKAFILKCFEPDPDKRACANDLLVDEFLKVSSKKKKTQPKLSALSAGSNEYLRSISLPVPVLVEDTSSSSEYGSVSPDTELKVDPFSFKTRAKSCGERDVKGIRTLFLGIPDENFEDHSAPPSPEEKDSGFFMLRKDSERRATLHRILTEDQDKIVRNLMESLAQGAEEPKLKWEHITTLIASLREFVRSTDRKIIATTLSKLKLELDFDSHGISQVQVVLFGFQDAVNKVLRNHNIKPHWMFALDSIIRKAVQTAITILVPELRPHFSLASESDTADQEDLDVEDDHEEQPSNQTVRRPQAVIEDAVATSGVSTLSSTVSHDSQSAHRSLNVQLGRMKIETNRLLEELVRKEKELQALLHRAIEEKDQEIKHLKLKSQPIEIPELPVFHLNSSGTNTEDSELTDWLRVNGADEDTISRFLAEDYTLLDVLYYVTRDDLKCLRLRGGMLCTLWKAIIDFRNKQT

MAP4K3 = MAP4K3 (UniProt Q8IVH8); details: affinity matrix / lysate: Kinobeads, mixed HEK293/K-562/placenta lysate
Chain of MAP4K3 (Q8IVH8 whole entry): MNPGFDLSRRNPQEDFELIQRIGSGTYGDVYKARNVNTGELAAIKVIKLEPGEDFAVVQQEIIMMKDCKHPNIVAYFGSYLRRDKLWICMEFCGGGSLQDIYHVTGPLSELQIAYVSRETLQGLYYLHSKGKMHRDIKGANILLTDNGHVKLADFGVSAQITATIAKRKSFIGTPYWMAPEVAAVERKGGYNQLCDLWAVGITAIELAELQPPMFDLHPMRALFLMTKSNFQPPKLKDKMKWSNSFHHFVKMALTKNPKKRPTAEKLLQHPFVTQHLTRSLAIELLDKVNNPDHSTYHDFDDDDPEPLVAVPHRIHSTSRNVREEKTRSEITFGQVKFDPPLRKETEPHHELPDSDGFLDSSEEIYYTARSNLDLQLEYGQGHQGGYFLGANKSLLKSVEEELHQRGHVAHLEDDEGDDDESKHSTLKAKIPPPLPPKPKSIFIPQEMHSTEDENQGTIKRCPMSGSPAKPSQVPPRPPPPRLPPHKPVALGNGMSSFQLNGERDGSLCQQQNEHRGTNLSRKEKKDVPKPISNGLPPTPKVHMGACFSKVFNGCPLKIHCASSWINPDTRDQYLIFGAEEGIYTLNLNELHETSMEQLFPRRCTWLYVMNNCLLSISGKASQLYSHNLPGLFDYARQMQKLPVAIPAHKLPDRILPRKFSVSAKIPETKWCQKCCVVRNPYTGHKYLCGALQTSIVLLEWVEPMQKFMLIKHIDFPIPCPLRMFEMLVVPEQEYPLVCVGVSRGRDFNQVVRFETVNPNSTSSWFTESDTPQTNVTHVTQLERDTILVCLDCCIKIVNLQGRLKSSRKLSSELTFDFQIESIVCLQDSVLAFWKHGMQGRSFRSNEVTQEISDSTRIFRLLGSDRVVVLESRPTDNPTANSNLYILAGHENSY

MAPK14 = MAPK14 (UniProt Q16539); details: affinity matrix / lysate: Kinobeads, mixed HEK293/K-562/placenta lysate
MAPK6 = MAPK6 (UniProt Q16659); details: affinity matrix / lysate: Kinobeads, mixed HEK293/K-562/placenta lysate
MAPK9 = MAPK9 (UniProt P45984); details: affinity matrix / lysate: Kinobeads, mixed HEK293/K-562/placenta lysate
MYLK3 = MYLK3 (UniProt Q32MK0); details: affinity matrix / lysate: Kinobeads, mixed HEK293/K-562/placenta lysate
Chain of MYLK3 (Q32MK0 whole entry): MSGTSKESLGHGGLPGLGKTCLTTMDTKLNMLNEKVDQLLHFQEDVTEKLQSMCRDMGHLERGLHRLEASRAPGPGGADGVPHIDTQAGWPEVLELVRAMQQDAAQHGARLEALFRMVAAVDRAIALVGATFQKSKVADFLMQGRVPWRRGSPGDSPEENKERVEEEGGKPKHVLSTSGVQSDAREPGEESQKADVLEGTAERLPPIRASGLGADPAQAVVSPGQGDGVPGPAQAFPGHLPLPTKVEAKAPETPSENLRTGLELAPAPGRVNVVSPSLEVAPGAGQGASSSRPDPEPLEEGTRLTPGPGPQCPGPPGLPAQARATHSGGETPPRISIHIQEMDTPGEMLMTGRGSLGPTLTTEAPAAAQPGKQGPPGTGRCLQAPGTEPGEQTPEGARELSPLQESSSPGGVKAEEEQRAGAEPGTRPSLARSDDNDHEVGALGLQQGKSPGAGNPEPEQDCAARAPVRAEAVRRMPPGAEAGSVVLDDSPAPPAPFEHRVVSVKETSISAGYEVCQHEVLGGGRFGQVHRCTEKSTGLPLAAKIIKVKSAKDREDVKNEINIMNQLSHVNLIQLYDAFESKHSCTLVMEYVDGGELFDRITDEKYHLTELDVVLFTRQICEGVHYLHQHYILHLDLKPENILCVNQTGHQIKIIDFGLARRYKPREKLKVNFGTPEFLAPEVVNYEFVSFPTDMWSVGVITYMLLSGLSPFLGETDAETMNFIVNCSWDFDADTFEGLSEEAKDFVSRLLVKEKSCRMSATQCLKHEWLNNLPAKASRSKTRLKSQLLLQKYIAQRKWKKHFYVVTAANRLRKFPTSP

NEK6 = NEK6 (UniProt Q9HC98); details: affinity matrix / lysate: Kinobeads, mixed HEK293/K-562/placenta lysate
NEK9 = NEK9 (UniProt Q8TD19); details: affinity matrix / lysate: Kinobeads, mixed HEK293/K-562/placenta lysate
OXSR1 = OXSR1 (UniProt O95747); details: affinity matrix / lysate: Kinobeads, mixed HEK293/K-562/placenta lysate
PFTK1 = PFTK1 (UniProt O94921); details: affinity matrix / lysate: Kinobeads, mixed HEK293/K-562/placenta lysate
PIK3C3 = PIK3C3 (UniProt Q8NEB9); details: affinity matrix / lysate: Lipid Kinobeads, mixed HeLa/Jurkat/K-562 lysate
PIM3 = PIM3 (UniProt Q86V86); details: affinity matrix / lysate: Kinobeads, mixed HEK293/K-562/placenta lysate
PKMYT1 = PKMYT1 (UniProt Q99640); details: affinity matrix / lysate: Kinobeads, mixed HEK293/K-562/placenta lysate
STK10 = STK10 (UniProt O94804); details: affinity matrix / lysate: Kinobeads, mixed HEK293/K-562/placenta lysate
STK39 = STK39 (UniProt Q9UEW8); details: affinity matrix / lysate: Kinobeads, mixed HEK293/K-562/placenta lysate
TAOK3 = TAOK3 (UniProt Q9H2K8); details: affinity matrix / lysate: Kinobeads, mixed HEK293/K-562/placenta lysate
TGFBR2 = TGFBR2 (UniProt P37173); details: affinity matrix / lysate: Kinobeads, mixed HEK293/K-562/placenta lysate
TNK1 = TNK1 (UniProt Q13470); details: affinity matrix / lysate: Kinobeads, mixed HEK293/K-562/placenta lysate

Measured: apparent dissociation constant (-log10 M)

COc1ccc(-c2ccc3c(N4CCOC[C@@H]4C)nc(N4CCOC[C@@H]4C)nc3n2)cc1CO [AZD8055]
< 6: all assays above

CCNC(=O)Nc1ccc(-c2nc(N3CCOC[C@@H]3C)c3c(n2)C(C)(C)S(=O)(=O)C3)cc1 [CZ415]
< 6: all assays above
